“Also recorded” adds a separate entry of the source.
Experiments:
[1] = tested on: human skin fibroblasts (AD, AC, YC); format: cell-based
[2] = tested on: 166 pS K^+ channel; assay: Patch-clamp, cell-free patches: channel sensitivity to blockers; format: cell-based, human; conditions: 50 mM Ba^2+, inside-out patches, n=4
Procedure: (§1) Patch-clamp experiments were performed at room temperature (21-23° C.), following standard procedures set forth in Sakmann, B. and Neher, E. (1983) Single Channels Recordings (Plenum New York) and Kukuljan, M., et al. (1991) J. Membrane Biol. 119:187. Before recordings, […] culture medium was replaced with the following solution: 150 mM NaCl, 5 mM KCl, 2 mM CaCl2, 1 MM MgCl2, 10 mM HEPES […] pH=7.4. Pipettes were made from Blue Tip capillary tubes (I.D. 1.1-1.2 mm) using a BB-CH Mecanex puller, and then filled with a high potassium solution of 140 mM KCl, 2 mM CaCl2, 1 mM MgCl2, 10 mM HEPES (NaOH), pH=7.4. Pipette resistances were approximately 6 MΩ. Records were obtained using an Axopatch-1C amplifier (dc-10 kHz), stored on tape (Toshiba PCM-video recorder), and later transferred to a personal computer using an Axolab interface. Only recordings lasting for at least 3 minutes were considered for final analysis. The pClamp suite of programs was used for single-channel data acquisition and analysis. Amplifier, interface and software were obtained from Axon Instruments (Foster City, Calif.).

[3] = tested on: 113 pS K^+ channel; assay: as above; format: cell-based, human; conditions: 50 mM Ba^2+, inside-out patches, n=4
Procedure: as §1

[4] = tested on: 113 pS K+ channel; conditions: low β-amyloid concentration (10 nM), cited from earlier work
[5] = tested on: proteins in the 20 kD region; assay: Total protein analysis (SDS-PAGE, Coomassie blue) of β-amyloid treated AC fibroblasts; format: cell-based, human; conditions: 10 nM β-amyloid for 48 h, AC cell lines
Procedure: (§2) Cell lines and procedures for cell culture. Human skin fibroblasts were grown to confluence in 75 cc growing surface culture flasks (Falcon) containing Dulbecco's modified Eagle's medium (DMEM, Gibco), supplemented with 10% fetal calf serum (Gibco). […]
Protein assay, immunoblotting, and total protein analyses procedures. Protein concentration was determined following an established dye-binding protein assay (R. D. Lane et al. J. Immunol Methods 92:261 (1986) for all homogenates. For immunoblots, a SDS-PAGE 4-20% gradient, […] gel was used (Novex, San Diego, Calif.). Sample volume was adjusted to give a protein concentration of 1 μg/μl. Novex sample buffer (16 μl) was added to 16 μl of sample, the solution was heated to 85° C. for 2 min, loaded into the gel and subjected to […] for ≈1.5 h. The Rainbow™ molecular weight standard (Amersham) was also loaded. The resolved proteins were electrophoretically transferred (51.2 mA for 2 h) to a unmodified 8 by 8 cm nitrocellulose paper (Pierce). […] Immunoblots were then digitized on a flat bed scanner and analyzed with imaging software written in the laboratory (TN Image by T. J. Nelson) for quantitative analysis. […] MW was determined by comparison with Mark12™ standards (Novex). […]

[6] = tested on: Cp20; assay: Cp20 immunoblot of AC fibroblasts treated with β-amyloid; format: cell-based, human; conditions: 10 nM β-amyloid for 48 h, 9 AC cell lines
Procedure: as §2
Protein assay, immunoblotting, and total protein analyses procedures. Protein concentration was determined following an established dye-binding protein assay (R. D. Lane et al. J. Immunol Methods 92:261 (1986) for all homogenates. For immunoblots, a SDS-PAGE 4-20% gradient, […] gel was used (Novex, San Diego, Calif.). Sample volume was adjusted to give a protein concentration of 1 μg/μl. Novex sample buffer (16 μl) was added to 16 μl of sample, the solution was heated to 85° C. for 2 min, loaded into the gel and subjected to […] for ≈1.5 h. The Rainbow™ molecular weight standard (Amersham) was also loaded. The resolved proteins were electrophoretically transferred (51.2 mA for 2 h) to a unmodified 8 by 8 cm nitrocellulose paper (Pierce). […]

## [Cl][Cd][Cl] [CdCl2]
[1]
  response to high potassium when agent is added before stimulation: No responses were observed

## [Cl][La]([Cl])[Cl] [LaCl3]
[1]
  response to high potassium when agent is added before stimulation: No responses were observed

## [Cl-].[K+] [KCl, potassium chloride]
[1]; 50 mM KCl
  return of [Ca^2+]i to basal levels: 100 s
[1]; 50 mM KCl, all three groups (AD, AC, YC)
  [Ca^2+]i elevation: at least 100%

## [Ba+2] [Ba^2+]
[2]
  sensitivity of the 166 pS channel to Ba^2+: sensitive
[3]
  sensitivity of the 113 pS channel to Ba^2+: sensitive

## [Cl][Ni][Cl] [NiCl2]
[1]
  response to high potassium when agent is added before stimulation: No responses were observed

## β-amyloid 1-40 peptide
[4]; control cells
  effect on the 113 pS K+ channel / K+ function: specific AD-like effects; also recorded: induces an AD-like K+ dysfunction
[4]
  effect on basal levels of intracellular Ca^2+: without altering basal levels
[5]
  effect on total protein profile / proteins in the 20 kD region: not a generalized effect on all proteins in the 20 kD region; also recorded: revealed no differences
[6]
  Cp20 level in treated cells compared to non-treated counterparts: significantly reduced; also recorded: reduction of Cp20; also recorded: induced the Alzheimer's disease phenotypes for Cp20

## [Cl-].[Cl-].[Co+2] [CoCl2]
[1]
  response to high potassium when agent is added before stimulation: No responses were observed

## O=C(O)CN(CCOCCOCCN(CC(=O)O)CC(=O)O)CC(=O)O [EGTA]
[1]
  response to high potassium when agent is added before stimulation: No responses were observed

From patent US20020098520A1, “Cell tests and diagnostic index for alzheimer's disease” (priority 1993, published 2002)
